Experiment: CaCO3 scale inhibition at pH 9 and 300X calcite saturation (% inhibition by calcium titration, Schwarzenbach method)
Method: PROCEDURE: Scaling water containing 250 mg/L of CO (-2)/(3) [formula] and 600 mg/L of alkalinity at a pH of 9.0 and 55°C was used to evaluate scale inhibition performance of test solutions over a 24 hr period. Test solutions were analyzed by withdrawing 10 g of test solution and adding it to the appropriate container through a 0.2 µ filter, titrating for calcium, and calculating % inhibition by the Schwarzenbach method.

With `O=P(O)(O)CN(CCO)CP(=O)(O)O` [Sample No. 1, N-(2-hydroxyethyl)-N-bis(methylenephosphonic acid)] the scale inhibition (10% Excess Ca/Alk, 25ppm) was 67.8%, the scale inhibition (10% Excess Ca/Alk, 50ppm) was 85.6% and the scale inhibition (60°C, 50ppm) was 82.6%. For the same compound, the scale inhibition (pH 9, 300X CaCO₃, 50ppm, 24hrs) was 90.8% and the scale inhibition (pH 9, 300X CaCO₃, 50ppm, 4 days) was 87.5%.
